According to ChEMBL document CHEMBL1134339, “New 1-aryl-3-(4-arylpiperazin-1-yl)propane derivatives, with dual action at 5-HT1A serotonin receptors and serotonin transporter, as a new class of antidepressants” (J Med Chem, 2001):

Assays:
[1] = target: T1, 5-hydroxytryptamine receptor 1A (Rattus norvegicus, UniProt P19327); assay: Binding affinity to 5-hydroxytryptamine 1A receptor (5-HT 1A receptor, serotonin receptor) from rat cortex using [3H]8-OH-DPAT as radioligand
T1 sequence (P19327 whole entry): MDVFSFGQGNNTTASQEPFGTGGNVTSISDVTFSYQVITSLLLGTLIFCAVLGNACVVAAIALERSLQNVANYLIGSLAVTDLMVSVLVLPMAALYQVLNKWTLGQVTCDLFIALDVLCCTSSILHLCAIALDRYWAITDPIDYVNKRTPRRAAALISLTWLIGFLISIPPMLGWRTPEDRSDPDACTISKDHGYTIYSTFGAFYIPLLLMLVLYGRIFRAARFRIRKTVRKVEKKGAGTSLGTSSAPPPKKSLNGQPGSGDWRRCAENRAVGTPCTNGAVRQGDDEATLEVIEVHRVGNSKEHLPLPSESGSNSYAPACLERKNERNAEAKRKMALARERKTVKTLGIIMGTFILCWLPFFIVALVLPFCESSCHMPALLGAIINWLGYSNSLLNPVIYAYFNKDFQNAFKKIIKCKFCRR

[2] = target: Sodium-dependent serotonin transporter (Rattus norvegicus, UniProt P31652); assay: Binding affinity towards Serotonin transporter from rat cortex measured using [3H]paroxetine; conditions: read-out: Ki
Sequence of Sodium-dependent serotonin transporter (P31652 whole entry): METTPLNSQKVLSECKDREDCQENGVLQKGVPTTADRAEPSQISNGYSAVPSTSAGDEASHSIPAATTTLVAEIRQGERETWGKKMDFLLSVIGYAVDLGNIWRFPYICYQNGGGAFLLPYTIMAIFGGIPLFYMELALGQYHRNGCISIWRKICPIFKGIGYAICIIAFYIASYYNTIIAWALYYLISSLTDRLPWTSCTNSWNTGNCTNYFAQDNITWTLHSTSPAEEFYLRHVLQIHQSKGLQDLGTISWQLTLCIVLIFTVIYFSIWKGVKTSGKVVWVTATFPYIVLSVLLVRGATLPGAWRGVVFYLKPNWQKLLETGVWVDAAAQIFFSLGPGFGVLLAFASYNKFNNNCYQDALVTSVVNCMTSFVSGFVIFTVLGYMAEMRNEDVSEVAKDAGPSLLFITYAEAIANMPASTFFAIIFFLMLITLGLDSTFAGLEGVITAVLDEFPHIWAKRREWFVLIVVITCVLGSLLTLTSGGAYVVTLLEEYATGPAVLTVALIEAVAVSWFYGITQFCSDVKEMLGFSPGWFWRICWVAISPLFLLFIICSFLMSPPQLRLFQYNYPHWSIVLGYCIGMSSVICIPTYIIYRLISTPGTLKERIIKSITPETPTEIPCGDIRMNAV

Row | Ki ([1]; read-out: Ki) | Ki [2] | Ki [1] | SMILES
1 | 0.075 µM | 5 µM |  | COc1ccccc1N1CCN(CC/C(=N/O)c2ccc(C)s2)CC1
2 |  | 1.25 µM | 0.019 µM | COc1ccccc1N1CCN(CCC(O)c2cccs2)CC1 (centres undefined)
3 | 0.005 µM | 1.35 µM |  | COc1ccccc1N1CCN(CCC(=O)c2cc(C)sc2C)CC1
4 | 0.05 µM | 0.385 µM |  | COc1ccccc1N1CCN(CCC(O)c2ccsc2)CC1 (centres undefined)
5 | 0.13 µM | > 5 µM |  | COc1ccccc1N1CCN(CC/C(=N/O)c2cc(C)sc2C)CC1
6 | 0.2 µM | > 5 µM |  | OC(CCN1CCN(c2ccccc2Cl)CC1)c1ccsc1 (centres undefined)
7 | 0.085 µM | 5 µM |  | COc1ccccc1N1CCN(CC/C(=N\O)c2cc(C)sc2C)CC1
8 |  | > 5 µM | 0.0475 µM | COc1ccccc1N1CCN(CCC(O)c2ccccc2)CC1 (centres undefined)
9 | 0.25 µM | 1 µM |  | COc1ccccc1N1CCN(CCC(=O)c2ccc3ccccc3c2)CC1
10 | 0.0175 µM | > 5 µM |  | COc1ccccc1N1CCN(CCC(=O)c2ccc(C)s2)CC1
11 | 0.01 µM | > 5 µM |  | COc1ccccc1N1CCN(CCC(=O)c2cccs2)CC1
12 |  | > 5 µM | 0.34 µM | COc1ccccc1N1CCN(CCC(=O)c2ccc([N+](=O)[O-])s2)CC1
13 | 0.5 µM | 0.5 µM |  | COc1cc(F)ccc1N1CCN(CCC(=O)c2csc3ccccc23)CC1
14 | 0.2 µM | > 5 µM |  | O=C(CCN1CCN(c2ccccc2Cl)CC1)c1ccsc1
15 |  | 0.95 µM | 0.0065 µM | COc1ccccc1N1CCN(CC/C(=N\O)c2ccsc2)CC1
16 |  | 5 µM | 0.034 µM | COc1ccccc1N1CCN(CCC(O)c2ccc(C)s2)CC1 (centres undefined)
17 | 0.01 µM | 2.5 µM |  | COc1ccccc1N1CCN(CCC(O)c2ccc([N+](=O)[O-])cc2)CC1 (centres undefined)
18 | 0.05 µM | > 5 µM |  | COc1ccccc1N1CCN(CCC(=O)c2ccc([N+](=O)[O-])cc2)CC1
19 |  | > 5 µM |  | COc1ccc(C(=O)CCN2CCN(c3ccccc3OC)CC2)cc1
20 | > 5 µM | 5 µM |  | O/N=C(\CCN1CCN(c2ccc(Cl)cc2)CC1)c1ccccc1
21 |  | > 5 µM |  | COc1ccccc1N1CCN(CCC(=O)c2ccccc2)CC1
22 |  | 0.8 µM | 0.035 µM | O=C(CCN1CCN(c2cccc3ccccc23)CC1)c1ccsc1
23 |  | 0.5 µM | 0.325 µM | COc1ccc(C(O)CCN2CCN(c3ccccc3OC)CC2)cc1 (centres undefined)
24 |  | 5 µM | 0.0175 µM | COc1ccccc1N1CCN(CC/C(=N\O)c2ccccc2)CC1

Second part, the compound before the results:

Row | SMILES | Ki ([1]; read-out: Ki) | Ki [2] | Ki [1]
25 | OC(CCN1CCN(c2ccc(Cl)cc2)CC1)c1csc2ccccc12 (centres undefined) | 5 µM | 0.05 µM | 
26 | COc1ccc(N2CCN(CCC(O)c3ccccc3)CC2)cc1 (centres undefined) | > 5 µM | 1.15 µM | 
27 | OC(CCN1CCN(c2ccc(Cl)cc2)CC1)c1ccsc1 (centres undefined) |  | 0.2 µM | 
28 | O=C(CCN1CCN(c2ccccc2O)CC1)c1csc2ccccc12 |  | 0.49 µM | 0.11 µM
29 | Fc1ccc(N2CCN(CCC(Oc3ccc(C(F)(F)F)cc3)c3ccccc3)CC2)cc1 (centres undefined) | > 5 µM | 0.5 µM | 
30 | COc1ccccc1N1CCN(CCC(Oc2ccc(C(F)(F)F)cc2)c2ccc(-c3ccccc3)cc2)CC1 (centres undefined) | > 5 µM | > 5 µM | 
31 | Cc1cc(C(=O)CCN2CCN(c3ccccc3O)CC2)c(C)s1 |  | 0.8 µM | 0.0075 µM
32 | COc1ccccc1N1CCN(CCC(Oc2cccc3ccccc23)c2cccs2)CC1 (centres undefined) |  | > 5 µM | 0.22 µM
33 | COc1ccccc1N1CCN(CCC(=O)c2ccc(-c3ccccc3)cc2)CC1 |  | 0.7 µM | 3.65 µM
34 | COc1ccccc1N1CCN(CCC(Oc2ccc3c(c2)OCO3)c2ccccc2)CC1 (centres undefined) | 0.02 µM | 0.5 µM | 
35 | COc1ccccc1N1CCN(CCC(Oc2ccc3c(c2)OCO3)c2ccsc2)CC1 (centres undefined) |  | 6.5 µM | 0.055 µM
36 | FC(F)(F)c1ccc(OC(CCN2CCN(c3ccccc3Cl)CC2)c2ccccc2)cc1 (centres undefined) | > 5 µM | > 5 µM | 
37 | COc1cc(Cl)ccc1N1CCN(CCC(O)c2csc3ccccc23)CC1 (centres undefined) |  | 0.035 µM | 0.361 µM
38 | O=C(CCN1CCN(c2ccc(Cl)cc2)CC1)c1csc2ccccc12 | > 5 µM | 5 µM | 
39 | O=C(CCN1CCN(c2ccccn2)CC1)c1ccccc1 | 0.05 µM | > 5 µM | 
40 | OC(CCN1CCN(c2ccccn2)CC1)c1ccccc1 (centres undefined) |  | > 5 µM | 0.155 µM
41 | COc1cc(F)ccc1N1CCN(CCC(O)c2csc3ccccc23)CC1 (centres undefined) | 0.5 µM | 0.012 µM | 
42 | COc1ccc(N2CCN(CCC(=O)c3ccccc3)CC2)cc1 | 5 µM | > 5 µM | 
43 | COc1ccc(OC(CCN2CCN(c3ccccc3OC)CC2)c2ccccc2)cc1 (centres undefined) |  | 1.45 µM | 0.09 µM
44 | COc1ccc(N2CCN(CCC(Oc3ccc(C(F)(F)F)cc3)c3ccccc3)CC2)cc1 (centres undefined) | > 5 µM | > 5 µM | 
45 | OC(CCN1CCN(c2ccccc2Cl)CC1)c1ccccc1 (centres undefined) |  | > 5 µM | 0.115 µM
46 | OC(CCN1CCN(c2ncccn2)CC1)c1ccccc1 (centres undefined) |  | > 5 µM | 0.375 µM
47 | COc1ccccc1N1CCN(CCC(O)c2ccc(-c3ccccc3)cc2)CC1 (centres undefined) |  | 0.175 µM | 0.85 µM
48 | O=C(CCN1CCN(c2ccccc2Cl)CC1)c1ccccc1 | 0.18 µM | > 5 µM | 
49 | O=C(CCN1CCN(c2ccc(Cl)cc2)CC1)c1ccsc1 |  | 0.22 µM | 
50 | OC(CCN1CCN(c2ccc(Cl)cc2)CC1)c1ccc2ccccc2c1 (centres undefined) | > 5 µM | 0.01 µM | 
51 | O=C(CCN1CCN(c2ncccn2)CC1)c1ccccc1 |  | > 5 µM | 0.12 µM

Row | SMILES | Ki ([1]; read-out: Ki) | Ki [2] | Ki [1]
52 | O=[N+]([O-])c1ccc(N2CCN(CCC(O)c3ccccc3)CC2)cc1 (centres undefined) | > 5 µM | 1.15 µM | 
53 | COc1cc(F)ccc1N1CCN(CCC(=O)c2cc(C)sc2C)CC1 | 0.013 µM | 0.75 µM | 
54 | FC(F)(F)c1ccc(OC(CCN2CCN(c3ccccn3)CC2)c2ccccc2)cc1 (centres undefined) |  | 1.5 µM | 
55 | O=C(CCN1CCN(c2ccc([N+](=O)[O-])cc2)CC1)c1ccccc1 | > 5 µM | > 5 µM | 
56 | COc1ccccc1N1CCN(CCC(Oc2ccc(C(F)(F)F)cc2)c2ccsc2)CC1 (centres undefined) |  | 0.46 µM | 0.255 µM
57 | COc1ccc(C(CCN2CCN(c3ccccc3OC)CC2)Oc2ccc(C(F)(F)F)cc2)cc1 (centres undefined) | 1 µM | 0.65 µM | 
58 | O=C(CCN1CCN(c2ccc(Cl)cc2)CC1)c1ccc2ccccc2c1 | > 5 µM | 0.24 µM | 
59 | Cc1cc(C(=O)CCN2CCN(c3cccc4ccccc34)CC2)c(C)s1 | 0.1 µM | 0.37 µM | 
60 | OC(CCN1CCN(c2ccc(Cl)cc2)CC1)c1ccccc1 (centres undefined) | 0.8 µM | 0.35 µM | 
61 | O=C(CCN1CCN(c2ccccc2O)CC1)c1ccc2ccccc2c1 | 1 µM | 2.5 µM | 
62 | OC(CCN1CCN(c2ccc(Cl)cc2)CC1)c1cccs1 (centres undefined) | > 5 µM | 0.29 µM | 
63 | O=[N+]([O-])c1ccc(N2CCN(CCC(Oc3ccc(C(F)(F)F)cc3)c3ccccc3)CC2)cc1 (centres undefined) | > 5 µM | 2.5 µM | 
64 | COc1cc(Cl)ccc1N1CCN(CCC(=O)c2csc3ccccc23)CC1 | 0.5 µM | 0.275 µM | 
65 | Clc1ccc(N2CCN(CCC(Oc3ccc4c(c3)OCO4)c3ccccc3)CC2)cc1 (centres undefined) |  | 0.375 µM | 0.55 µM
66 | O=C(CCN1CCN(c2cccc3ccccc23)CC1)c1csc2ccccc12 | 0.1 µM | 0.5 µM | 
67 | FC(F)(F)c1ccc(OC(CCN2CCN(c3ccc(Cl)cc3)CC2)c2ccccc2)cc1 (centres undefined) | > 5 µM | 0.35 µM | 
68 | COc1cc(Cl)ccc1N1CCN(CCC(=O)c2cc(C)sc2C)CC1 | 0.5 µM | 0.275 µM | 
69 | OC(CCN1CCN(c2ccc(F)cc2)CC1)c1ccccc1 (centres undefined) |  | 4.7 µM | 0.145 µM
70 | COc1ccccc1N1CCN(CCC(Oc2ccc(C(F)(F)F)cc2)c2ccccc2)CC1 (centres undefined) |  | 0.65 µM | 0.45 µM
71 | COc1ccccc1N1CCN(CCC(O)c2ccc3ccccc3c2)CC1 (centres undefined) |  | 0.38 µM | 0.42 µM
72 | O=C(CCN1CCN(c2ccc(F)cc2)CC1)c1ccccc1 | 0.8 µM | > 5 µM | 
73 | O=C(CCN1CCN(c2ccc(Cl)cc2)CC1)c1cccs1 | > 5 µM | 0.06 µM | 
74 | FC(F)(F)c1ccc(OC(CCN2CCN(c3ncccn3)CC2)c2ccccc2)cc1 (centres undefined) | 1.6 µM | 1.6 µM | 
75 | COc1ccc(OC(CCN2CCN(c3ccc(Cl)cc3)CC2)c2ccccc2)cc1 (centres undefined) | 1.45 µM | 0.5 µM | 
76 | O=C(CCN1CCN(c2ccc(Cl)cc2)CC1)c1ccccc1 | 0.8 µM | 0.3 µM | 
77 | Cc1cc(C(O)CCN2CCN(c3ccccc3O)CC2)c(C)s1 (centres undefined) |  | 2.5 µM | 0.09 µM
